Results from BigSolDB 2.1.

C=NCC#N
solubility (mole fraction)
Conditions | 278.15 K | 283.15 K | 288.15 K | 293.15 K | 298.15 K | 303.15 K | 308.15 K | 313.15 K | 318.15 K | 323.15 K
in ethanol | 0.00175 | 0.00213 | 0.00253 | 0.00303 | 0.00357 | 0.00424 | 0.00501 | 0.00595 | 0.00695 | 0.00814
in methanol | 0.00436 | 0.00516 | 0.00624 | 0.00747 | 0.00894 | 0.0107 | 0.0125 | 0.0145 | 0.0169 | 0.0196
in n-butanol | 0.000479 | 0.000578 | 0.000686 | 0.000819 | 0.000985 | 0.00115 | 0.00139 | 0.00162 | 0.00191 | 0.00224
in n-propanol | 0.00099 | 0.00125 | 0.00151 | 0.00183 | 0.00222 | 0.00266 | 0.00315 | 0.0037 | 0.00427 | 0.00499
in water | 0.00083 | 0.000998 | 0.00119 | 0.00143 | 0.00171 | 0.00198 | 0.00235 | 0.00274 | 0.0032 | 0.00371
